Like-named read-outs stand apart in the source and are kept apart here.

In series [1] the target is T1, E. coli WT RNAP (Escherichia coli, UniProt P0A8V2).
T1 construct: made in house
Description: biochemical.

Series [2] concerns the target T2, E. coli D516V (RIF^R) RNAP (Escherichia coli, UniProt P0A8V2, D516V).
T2 construct: made in house
Description: biochemical.

Series [3] addresses T3, E. coli S531L (RIF^R) RNAP (Escherichia coli, UniProt P0A8V2, S531L).
T3 construct: made in house
Put plainly: biochemical.

The test system of series [4] is VERO cells (ATCC CRL-81). Put plainly: Vero cell toxicity. As to conditions: 72 hours exposure. It counts as cell-based. As to the method:
Cytotoxicity for a mammalian cell line was determined by exposing VERO cells (ATCC CRL-81) to serial dilutions of test compounds for 72 hours, followed by addition of resazurin and measurement of fluorescence after 4 hours incubation (Choules, et al., Antimnicrob. Agents Chemother. 2019, 63, e02204-02218).

Series [5] concerns MTB H37Rv ATCC 27294. Description: MIC, microplate Alamar Blue assay (MABA). The series is classed as cell-based, Mycobacterium tuberculosis. As to conditions: for MIC / MIC90: MTB H37Rv ATCC 27294, microplate Alamar Blue assay, lowest concentration giving ≥90% reduction in fluorescence; for MIC: read-out: MIC90 MABA. (Resazurin is reduced to fluorescent resorufin, in cell work by metabolically active cells.)

In series [6] the test system is M. tuberculosis H37Rv. Put plainly: Minimum bactericidal concentration (MBC, CFU Assay). The series is classed as cell-based, Mycobacterium tuberculosis. The note with it: for MBC99 Day 7 (CFU Assay) MBC99 Rel to RMP: CFU Assay MBC99 relative to rifampin (RMP = 1); for MBC: Mycobacterium tuberculosis, 168 h, Day 7, M. tuberculosis H37Rv, ≥99% reduction in colony forming units, read-out: MBC99 Day 7 (CFU Assay) MBC99.

Series [7] relates to DPX2 cells.
Series [8] concerns the target T4, human pregnane X receptor (hPXR) (Homo sapiens, UniProt O75469).
T4 sequence (O75469 1-434): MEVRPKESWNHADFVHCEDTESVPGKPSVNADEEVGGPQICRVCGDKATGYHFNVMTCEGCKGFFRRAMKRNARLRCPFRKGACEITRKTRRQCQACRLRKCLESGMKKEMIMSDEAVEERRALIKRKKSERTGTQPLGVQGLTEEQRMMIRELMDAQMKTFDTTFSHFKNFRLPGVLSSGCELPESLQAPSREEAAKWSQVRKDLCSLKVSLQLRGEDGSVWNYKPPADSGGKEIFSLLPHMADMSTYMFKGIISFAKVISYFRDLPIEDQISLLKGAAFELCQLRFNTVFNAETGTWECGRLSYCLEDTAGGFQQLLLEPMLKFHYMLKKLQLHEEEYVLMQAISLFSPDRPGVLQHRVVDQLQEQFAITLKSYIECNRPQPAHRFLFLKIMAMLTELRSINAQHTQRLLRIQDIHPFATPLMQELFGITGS

On to `CO[C@H]1/C=C/O[C@@]2(C)Oc3c(C)c(O)c4c(=O)c(c5oc6cc(N7CCN(CC(C)C)CC7)cc(OCc7cccc(CN8CCN(C(=O)Cn9ccnc9)CC8)c7)c6nc-5c4c3C2=O)NC(=O)/C(C)=C\C=C\[C@H](C)[C@H](O)[C@@H](C)[C@@H](O)[C@@H](C)[C@H](OC(C)=O)[C@@H]1C` [Compound 12c, (7S,9E,11S,12R,13S,14R,15R,16R,17S,18S,19E,21Z)-2,15,17-Trihydroxy-32-{[3-({4-[2-(1H-imidazol-1-yl)acetyl]piperazin-1-yl}methyl)phenyl]methoxy}-11-methoxy-3,7,12,14,16,18,22-heptamethyl-30-[4-(2-methylpropyl)piperazin-1-yl]-6,23,37-trioxo-8,27,38-trioxa-24,34-diazahexacyclo[23.11.1.1^4,7.0^5,36.0^26,35.0^28,33]octatriaconta-1(36)2,4,9,19,21,25,28,30,32,34-undecaen-13-yl acetate], for which the IC50 in series [1] was 0.014 µM; in series [2], 17 µM; in series [3] it was 66 µM; in series [4] (Chlorocebus sabaeus, Vero), over 8 µM. Further, the “MIC90 MABA Rel to RMP” value in series [5] was found to be 0.12. In series [5] (Mycobacterium tuberculosis), the MIC stood at 0.0048 µM. In series [6], the “MBC99 Day 7 (CFU Assay) MBC99 Rel to RMP” value was under 0.08. Also, in series [6], the MBC was under 0.02 µM. In addition, the “DPX2 Viability @ 6.25 μM” value in series [7] (6.25 μM, 24 h) came out at 107%. In addition, the “DPX2 Viability @ 25 μM” value in series [7] (human) is 95%.
Turning to `CO[C@H]1/C=C/O[C@@]2(C)Oc3c(C)c(O)c4c(=O)c(c5oc6cccc(OCc7ccc(CN8CCN(C(=O)Cn9ccnc9)CC8)cc7)c6nc-5c4c3C2=O)NC(=O)/C(C)=C\C=C\[C@H](C)[C@H](O)[C@@H](C)[C@@H](O)[C@@H](C)[C@H](OC(C)=O)[C@@H]1C` [Compound 16b, (7S,9E,11S,12R,13S,14R,15R,16R,17S,18S,19E,21Z)-2,15,17-Trihydroxy-32-{[4-({4-[2-(1H-imidazol-1-yl)acetyl]piperazin-1-yl}methyl)phenyl]methoxy}-11-methoxy-3,7,12,14,16,18,22-heptamethyl-6,23,37-trioxo-8,27,38-trioxa-24,34-diazahexacyclo[23.11.1.1^4,7.0^5,36.0^26,35.0^28,33]octatriaconta-1(36)2,4,9,19,21,25,28,30,32,34-undecaen-13-yl acetate], the IC50 in series [1] is 0.005 µM; in series [2], 24 µM; in series [3] it was 160 µM; in series [4] (Chlorocebus sabaeus, Vero) it was over 8 µM. In series [5], the “MIC90 MABA Rel to RMP” value was determined as 1.6. The MIC in series [5] (Mycobacterium tuberculosis) worked out at 0.029 µM. The “MBC99 Day 7 (CFU Assay) MBC99 Rel to RMP” value in series [6] was determined as 0.15. Further, the MBC in series [6] was determined as 0.02 µM. Moreover, the “DPX2 Viability @ 6.25 μM” value in series [7] (6.25 μM, 24 h) stood at 117%. In series [7] (human), the “DPX2 Viability @ 25 μM” value is listed as 76%.
`CO[C@H]1/C=C/O[C@@]2(C)Oc3c(C)c(O)c4c(=O)c(c5oc6cc(N7CCN(CC(C)C)CC7)cc(OCc7ccc(CN8CCN(C(=O)Cn9ccnc9)CC8)cc7)c6nc-5c4c3C2=O)NC(=O)/C(C)=C\C=C\[C@H](C)[C@H](O)[C@@H](C)[C@@H](O)[C@@H](C)[C@H](OC(C)=O)[C@@H]1C` [Compound 17c, (7S,9E,11S,12R,13S,14R,15R,16R,17S,18S,19E,21Z)-2,15,17-Trihydroxy-32-{[4-({4-[2-(1H-imidazol-1-yl)acetyl]piperazin-1-yl}methyl)phenyl]methoxy}-11-methoxy-3,7,12,14,16,18,22-heptamethyl-30-[4-(2-methylpropyl)piperazin-1-yl]-6,23,37-trioxo-8,27,38-trioxa-24,34-diazahexacyclo[23.11.1.1^4,7.0^5,36.0^26,35.0^28,33]octatriaconta-1(36)2,4,9,19,21,25,28,30,32,34-undecaen-13-yl acetate]: the IC50 in series [1] is 0.02 µM; in series [2], 12 µM; in series [3], 100 µM; in series [4] (Chlorocebus sabaeus, Vero) it was over 8 µM. Also, the “MIC90 MABA Rel to RMP” value in series [5] turned out to be 1.3. In series [5] (Mycobacterium tuberculosis), the MIC was 0.023 µM. The “MBC99 Day 7 (CFU Assay) MBC99 Rel to RMP” value in series [6] is reported as 0.15. The MBC in series [6] came to 0.02 µM. Moreover, the “DPX2 Viability @ 6.25 μM” value in series [7] (6.25 μM, 24 h) turned out to be 102%. Further, the “DPX2 Viability @ 25 μM” value in series [7] (human) worked out at 94%.
Take `CO[C@H]1/C=C/O[C@@]2(C)Oc3c(C)c(O)c4c(=O)c(c5oc6cc(N7CCN(CC(C)C)CC7)cc(OCc7ccc(CN8CCN(C(=O)CN9CCOCC9)CC8)cc7)c6nc-5c4c3C2=O)NC(=O)/C(C)=C\C=C\[C@H](C)[C@H](O)[C@@H](C)[C@@H](O)[C@@H](C)[C@H](OC(C)=O)[C@@H]1C` [Compound 17d, (7S,9E,11S,12R,13S,14R,15R,16R,17S,18S,19E,21Z)-2,15,17-Trihydroxy-11-methoxy-3,7,12,14,16,18,22-heptamethyl-30-[4-(2-methylpropyl)piperazin-1-yl]-32-{[4-({4-[2-(morpholin-4-yl)acetyl]piperazin-1-yl}methyl)phenyl]methoxy}-6,23,37-trioxo-8,27,38-trioxa-24,34-diazahexacyclo[23.11.1.1^4,7.0^5,36.0^26,35.0^28,33]octatriaconta-1(36)2,4,9,19,21,25,28,30,32,34-undecaen-13-yl acetate]: the IC50 in series [1] was 0.016 µM; in series [2] it was 7.3 µM; in series [3], 32 µM; in series [4] (Chlorocebus sabaeus, Vero), over 8 µM. Also, in series [5] (Mycobacterium tuberculosis), the MIC90 was under 0.016 µM. For the same compound, the “MBC99 Day 7 (CFU Assay) MBC99 Rel to RMP” value in series [6] turned out to be 0.15. The MBC in series [6] stood at 0.02 µM. Also, the “DPX2 Viability @ 6.25 μM” value in series [7] (6.25 μM, 24 h) worked out at 104%. Further, the “DPX2 Viability @ 25 μM” value in series [7] (human) came out at 84%.
Consider `CO[C@H]1/C=C/O[C@@]2(C)Oc3c(C)c(O)c4c(=O)c(c5oc6cc(N7CCN(C(=O)c8ccc(-c9ccc(C(N)=O)cc9)cc8)CC7)cc(OCc7ccc(CN8CCOCC8)cc7)c6nc-5c4c3C2=O)NC(=O)/C(C)=C\C=C\[C@H](C)[C@H](O)[C@@H](C)[C@@H](O)[C@@H](C)[C@H](OC(C)=O)[C@@H]1C` [Compound 17t, (7S,9E,11S,12R,13S,14R,15R,16R,17S,18S,19E,21Z)-30-(4-{[4-(4-carbamoylphenyl)-phenyl]carbonyl}piperazin-1-yl)-2,15,17-trihydroxy-11-methoxy-3,7,12,14,16,18,22-heptamethyl-32-{[4-(morpholin-4-ylmethyl)phenyl]methoxy}-6,23,37-trioxo-8,27,38-trioxa-24,34-diazahexacyclo[23.11.1.1^4,7.0^5,36.0^26,35.0^28,33]octatriaconta-1,3,5(36)9,19,21,25,28,30,32,34-undecaen-13-yl acetate], for which the midpoint of inhibition in series [4], the IC50, lay at 55 µM. In series [5], the “MIC90 MABA Rel to RMP” value came out at 0.6 and the MIC90 stood at 0.032 µM. For the same compound, the “hPXR Fold Act. (lucif) @ 6.25 μM” value in series [8] (6.25 μM, 24 h) worked out at 1.3 fold. In addition, the “hPXR Fold Act. (lucif) @ 25 μM” value in series [8] (25 μM, 24 h) came to 2.1 fold. In addition, in series [7] (6.25 μM, 24 h), the “DPX2 Viability @ 6.25 μM” value is given as 100%.
The compound `CO[C@H]1/C=C/O[C@@]2(C)Oc3c(C)c(O)c4c(=O)c(c5oc6cc(C)cc(N7CCN(C)CC7)c6nc-5c4c3C2=O)NC(=O)/C(C)=C\C=C\[C@H](C)[C@H](O)[C@@H](C)[C@@H](O)[C@@H](C)[C@H](OC(C)=O)[C@@H]1C` [Compound 30a, (7S,9E,11S,12R,13S,14R,15R,16R,17S,18S,19E,21Z)-2,15,17-Trihydroxy-11-methoxy-3,7,12,14,16,18,22,30-octamethyl-32-(4-methylpiperazin-1-yl)-6,23,37-trioxo-8,27,38-trioxa-24,34-diazahexacyclo[23.11.1.1^4,7.0^5,36.0^26,35.0^28,33]octatriaconta-1(36)2,4,9,19,21,25,28,30,32,34-undecaen-13-yl acetate] yielded an IC50 in series [4] of over 8 µM. Besides, in series [5], the “MIC90 MABA Rel to RMP” value is listed as under 0.6 and the MIC90 is under 0.016 µM. In series [8], the “hPXR Fold Act. (lucif) @ 6.25 μM” value amounted to 4.6 fold and the “hPXR Fold Act. (lucif) @ 25 μM” value is given as 20.4 fold. Also, in series [7], the “DPX2 Viability @ 6.25 μM” value was 92% and the “DPX2 Viability @ 25 μM” value amounted to 47%.

What is called IC50 is the concentration that inhibits the measured activity by half. The low end stands for greater potency, the high end for weaker potency. A word on the MIC90: it is the lowest concentration that inhibits either 90% of growth or 90% of the strains tested, depending on the study. High values mean lower susceptibility, low ones higher susceptibility.

These data come from US20250188092A1, “RIFAMYCIN ANALOGS” (THE REGENTS OF THE UNIVERSITY OF MICHIGAN, priority 2021, published 2025).
